Reference: patent publication US6602888B2, “Use of α1C specific compounds to treat benign prostatic hyperplasia” (Synaptic Pharmaceutical Corporation, priority 1992, dated 2003)
pKi: −log10 of the molar value. Like-named read-outs stand apart in the source and are kept apart here.

Key:
human prostate tissue = assay: Antagonism of phenylephrine-induced contraction of human prostatic tissue; settings: pA2, phenylephrine-induced contraction, dose-ratio method
Method: An index of this efficacy can be obtained by determining the potency of α1 antagonists to antagonize the contraction of human prostatic tissue induced by an α1 agonist “in vitro”.
Prostatic adenomas were obtained at the time of surgery from patients with symptomatic BPH. […] Isometric tension was measured with a Grass Instrument FT03 force transducer interfaced with a computer. Tissue strips were contracted with varying concentrations of phenylephrine after incubating for 20 minutes in the absence and presence of at least three different concentrations of antagonist. Dose-response curves for phenylephrine were constructed, and the antagonist potency (pA2) was estimated by the dose-ratio method.

[1] = biological target: T1, human α2B adrenergic receptor (Homo sapiens, UniProt P18089); assay: Competition binding, [3H]rauwolscine, α2B receptor; settings: for Ki: read-out: Alpha-2 Adrenergic a2b (pK1) (converted)
T1 sequence (P18089 1-450): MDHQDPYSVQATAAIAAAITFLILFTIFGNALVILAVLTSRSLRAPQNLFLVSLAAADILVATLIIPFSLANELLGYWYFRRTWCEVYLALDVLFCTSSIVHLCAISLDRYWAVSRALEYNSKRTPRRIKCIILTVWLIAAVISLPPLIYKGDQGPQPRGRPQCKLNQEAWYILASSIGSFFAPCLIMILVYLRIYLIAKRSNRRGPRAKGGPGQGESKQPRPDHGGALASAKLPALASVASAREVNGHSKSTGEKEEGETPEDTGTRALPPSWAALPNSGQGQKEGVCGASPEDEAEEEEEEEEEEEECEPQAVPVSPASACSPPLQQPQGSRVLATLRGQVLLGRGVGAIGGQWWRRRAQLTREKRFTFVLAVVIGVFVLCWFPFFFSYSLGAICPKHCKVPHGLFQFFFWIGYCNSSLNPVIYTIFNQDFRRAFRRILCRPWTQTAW
Method: (§1) To determine the potency of α1 antagonists at the α2 receptors, LM(tk−) cell lines stably transfected with the genes encoding the α2A, α2B, and α2C receptors were used. The cell line expressing the α2A receptor is designated L-α2A, and was deposited on Nov. […] The cell line expressing the α2B receptor is designated L-NGC-α2B, and was deposited on Oct. […] The cell line expressing the α2C receptor is designated L-α2C, and was deposited on Nov. […] Cell lysates were prepared as described above (see Radioligand Binding Assays), and suspended in 25 mM glycylglycine buffer (pH 7.6 at room temperature).

human D2 receptor = biological target: T2, human D2 receptor (Homo sapiens, UniProt P14416); assay: [3H]spiperone binding, dopamine D2 receptor; settings: for pKi: read-out: Dopamine D2 (pK1)
T2 construct: host or cells: COS-7, transient, DEAE-dextran
Method: The potency of α1 antagonists at the D2 receptor was determined using membrane preparations from COS-7 cells transfected with the gene encoding the human D2 receptor. The coding region for the human D2 receptor was obtained from a human striatum cDNA library, and cloned into the cloning site of PCDNA 1 eukariotic expression vector. The plasmid DNA for the D2 receptor is designated pcEXV-D2, and was deposited on Nov. […] This construct was transfected into COS-7 cells by the DEAE-dextran method. […] The cell lysates were incubated with [3H]spiperone (2 nM), using 10 μM (+)Butaclamol to determine nonspecific binding.

[2] = biological target: T3, human α2C adrenergic receptor (Homo sapiens, UniProt P18825); assay: Competition binding, [3H]rauwolscine, α2C receptor; settings: for Ki: read-out: Alpha-2 Adrenergic a2c (pK1) (converted)
T3 sequence (P18825 1-462): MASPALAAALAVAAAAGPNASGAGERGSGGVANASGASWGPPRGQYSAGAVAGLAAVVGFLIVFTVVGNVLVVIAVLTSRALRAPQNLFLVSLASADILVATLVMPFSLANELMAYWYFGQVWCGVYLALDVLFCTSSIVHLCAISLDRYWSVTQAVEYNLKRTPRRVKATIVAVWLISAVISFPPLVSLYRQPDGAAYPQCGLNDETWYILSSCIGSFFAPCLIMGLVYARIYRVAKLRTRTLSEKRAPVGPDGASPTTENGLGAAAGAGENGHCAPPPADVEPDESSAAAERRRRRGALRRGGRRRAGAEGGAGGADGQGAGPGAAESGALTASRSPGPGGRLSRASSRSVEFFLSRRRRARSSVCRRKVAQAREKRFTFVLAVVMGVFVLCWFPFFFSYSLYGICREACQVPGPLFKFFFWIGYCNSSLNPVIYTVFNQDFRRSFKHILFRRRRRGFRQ
Method: as §1

[3] = biological target: T4, human histamine H2 receptor (Homo sapiens, UniProt P25021); assay: [3H]tiotidine binding, histamine H2 receptor; settings: for Ki: read-out: Histamine H2 (pK1) (converted)
T4 construct: host or cells: COS-7, transient, DEAE-dextran
Excerpt: The coding sequence of the human H2 receptor was obtained from a human placenta genomic library, and cloned into the cloning site of PCEXV-3 eukaryotic expression vector. The plasmid DNA for the H2 receptor is designated pcEXV-H2, and was deposited on Nov. […] This construct was transfected into COS-7 cells by the DEAE-dextran method.

[4] = biological target: T5, human α2A adrenergic receptor (Homo sapiens, UniProt P08913); assay: Competition binding, [3H]rauwolscine, α2A receptor; settings: for Ki: read-out: Alpha-2 Adrenergic a2a (pK1) (converted)
T5 sequence (P08913 1-465): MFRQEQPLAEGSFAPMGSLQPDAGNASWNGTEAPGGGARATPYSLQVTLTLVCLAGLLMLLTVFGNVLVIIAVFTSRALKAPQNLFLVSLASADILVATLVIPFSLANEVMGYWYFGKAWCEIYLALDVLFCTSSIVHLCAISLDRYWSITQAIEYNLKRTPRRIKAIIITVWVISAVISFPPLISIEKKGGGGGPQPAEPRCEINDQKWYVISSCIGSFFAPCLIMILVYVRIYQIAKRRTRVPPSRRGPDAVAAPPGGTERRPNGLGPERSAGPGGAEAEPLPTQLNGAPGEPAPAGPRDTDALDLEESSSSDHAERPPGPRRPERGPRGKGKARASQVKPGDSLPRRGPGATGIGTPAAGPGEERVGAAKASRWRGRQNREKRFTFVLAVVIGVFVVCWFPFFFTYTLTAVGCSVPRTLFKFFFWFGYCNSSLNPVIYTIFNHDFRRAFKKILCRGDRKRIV
Method: as §1

human 5HT1E receptor = biological target: T6, human 5HT1E receptor (Homo sapiens, UniProt P28566); assay: [3H]serotonin competition binding, 5HT1E receptor
T6 construct: host or cells: LM(tk-) clonal cell line 5HT1E-7
Method: 5HT1Dα, 5HT1Dβ, 5HT1E, 5HT1F Receptors: The cell lysates of LM(tk−) clonal cell line stably transfected with the genes encoding each of these 5HT receptor-subtypes were prepared as described above. The cell line for the 5HT1Dα receptor, designated as Ltk-8-30-84, was deposited on Apr. […] The cell for the 5HT1Dβ receptor, designated as Ltk-11, was deposited on Apr. […] The cell line for the 5HT1E receptor, designated 5 HT1E-7, was deposited on Nov. […] The cell line for the 5HT1F receptor, designated L-5-HT1F, was deposited on Dec. […] These preparations were suspended in 50 mM Tris-HCl buffer (pH 7.4 at 37° C.) containing 10 mM MgCl2, 0.2 mM EDTA, 10 μM pargyline, and 0.1% ascorbate.

[5] = Table 2, cloned human receptor, read-out: Serotonin 5HT1E (pK1)

T2 sequence (P14416 whole entry): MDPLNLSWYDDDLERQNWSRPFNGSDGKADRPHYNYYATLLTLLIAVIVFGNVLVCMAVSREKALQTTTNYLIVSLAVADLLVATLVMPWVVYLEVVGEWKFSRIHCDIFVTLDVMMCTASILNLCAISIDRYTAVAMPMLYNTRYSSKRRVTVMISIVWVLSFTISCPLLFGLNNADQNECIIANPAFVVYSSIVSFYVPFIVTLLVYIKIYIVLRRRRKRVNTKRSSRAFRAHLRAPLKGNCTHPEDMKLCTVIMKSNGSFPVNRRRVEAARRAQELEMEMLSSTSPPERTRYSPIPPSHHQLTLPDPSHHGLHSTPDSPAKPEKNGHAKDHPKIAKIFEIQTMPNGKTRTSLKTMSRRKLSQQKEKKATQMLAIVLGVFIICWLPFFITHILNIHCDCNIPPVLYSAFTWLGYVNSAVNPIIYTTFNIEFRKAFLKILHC
T6 sequence (P28566 whole entry): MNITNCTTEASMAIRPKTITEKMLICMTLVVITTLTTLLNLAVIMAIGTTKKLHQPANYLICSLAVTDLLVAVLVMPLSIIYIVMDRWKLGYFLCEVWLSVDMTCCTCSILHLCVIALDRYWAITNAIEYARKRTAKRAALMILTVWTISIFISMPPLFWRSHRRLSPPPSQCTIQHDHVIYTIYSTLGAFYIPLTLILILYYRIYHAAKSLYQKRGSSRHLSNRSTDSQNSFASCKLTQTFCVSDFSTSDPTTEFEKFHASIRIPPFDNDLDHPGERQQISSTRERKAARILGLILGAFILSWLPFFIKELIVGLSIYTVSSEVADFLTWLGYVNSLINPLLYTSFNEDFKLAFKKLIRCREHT
T4 sequence (P25021 whole entry): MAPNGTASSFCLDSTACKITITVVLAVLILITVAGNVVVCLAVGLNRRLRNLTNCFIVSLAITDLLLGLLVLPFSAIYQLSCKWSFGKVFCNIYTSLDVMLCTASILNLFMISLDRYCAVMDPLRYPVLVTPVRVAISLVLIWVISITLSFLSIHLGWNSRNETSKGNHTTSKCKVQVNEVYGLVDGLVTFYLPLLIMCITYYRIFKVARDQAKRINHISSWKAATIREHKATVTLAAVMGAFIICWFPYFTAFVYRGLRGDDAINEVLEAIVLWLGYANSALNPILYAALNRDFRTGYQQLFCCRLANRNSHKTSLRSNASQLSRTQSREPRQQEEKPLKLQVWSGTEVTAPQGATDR

Row | Compound | Human Prostate (pA) (human prostate tissue) | Serotonin 5HT1E (pK1) (human 5HT1E receptor; Table 2, cloned human receptor) | Alpha-2 Adrenergic a2b (pK1) ([1]; Table 2, cloned human receptor) | Dopamine D2 (pK1) (human D2 receptor; Table 2, cloned human receptor) | Alpha-2 Adrenergic a2c (pK1) ([2]; Table 2, cloned human receptor) | Histamine H2 (pK1) ([3]; Table 2, cloned human receptor) | Alpha-2 Adrenergic a2a (pK1) ([4]; Table 2, cloned human receptor) | pKi (human D2 receptor; Table 2, cloned human receptor) | Ki ([3]; Table 2, cloned human receptor) | Ki ([1]; Table 2, cloned human receptor) | Ki ([2]; Table 2, cloned human receptor) | further results
1 | 4-fluoro-4-(8-fluoro-1,3,4,5-tetrahydro-2H-pyrido[4,3-b]indol-2-yl)butyrophenone hydrochloride [Compound A-30360, reference compound] | 8.72 | <5.0 | – | – | – | – | – | – | – | – | – | Alpha-2 Adrenergic a2b (pK1) [1]: 6.37; Dopamine D2 (pK1) (human D2 receptor): <9.0; Alpha-2 Adrenergic a2c (pK1) [2]: 6.23; Histamine H2 (pK1) [3]: 5.77; Alpha-2 Adrenergic a2a (pK1) [4]: 6.69
2 | COc1ccccc1N1CCN(CCCNc2c(C)c(=O)n(C)c(=O)n2C)CC1 [5-Methyl-Urapidil, 5-methylurapidil, reference compound] | 8.38 | – | 7.38 | <5.0 | 6.88 | 4.47 | 6.63 | – | – | – | – | –
3 | O=C(CCCN1CCC(NC(=O)c2ccccc2)CC1)c1ccc(Cl)cc1 [Compound 7] | 7.63 | <5.0 | 6.07 | <7.0 | 6.09 | 6.02 | – | – | – | – | – | –
4 | COC(=O)C1=C(C)NC(C)=C(C(=O)OCCCN2CCC(c3ccccc3)(c3ccccc3)CC2)C1c1ccc([N+](=O)[O-])cc1.Cl (stereo not shown) [Compound 8, 2,6-Dimethyl-4-(4-nitrophenyl)-1,4-dihydropyridine-3,5-dicarboxylic acid [3-(4,4-diphenylpiperidin-1-yl)propyl] ester methyl ester hydrochloride] | 7.46 | – | 6.12 | – | 5.77 | – | 5.99 | < 6.00 | 776 nM | – | – | pKi (human 5HT1E receptor): < 5.00
5 | O=C(CCCN1CCC(NC(=O)c2ccccc2)CC1)c1ccccc1 [Compound 9] | 7.41 | <5.0 | 5.69 | <7.0 | 5.90 | 5.44 | 5.80 | – | – | – | – | –
6 | COc1ccc(CCNCC2CCc3ccccc3C2)cc1 (stereo not shown) [Compound 11, 2-[(4-Methoxyphenethyl)aminomethyl]-1,2,3,4-tetrahydronaphthalene] | 6.64 | – | – | – | – | – | – | < 6.00 | 35.5 nM | 126 nM | 120 nM | Human Prostate (pA) (human prostate tissue; listed as SNAP 5036): low; Ki ([4]; Table 2, cloned human receptor): 138 nM; pKi (human 5HT1E receptor): < 5.00
7 | O=C(NC1CCN(CCc2c[nH]c3ccccc23)CC1)c1ccccc1 [Indoramin, reference compound] | 7.86 | – | – | – | – | – | – | < 8.00 | 2340 nM | 1910 nM | 6030 nM | Ki ([4]; Table 2, cloned human receptor): 11500 nM; pKi (human 5HT1E receptor; [5]): < 5.00
8 | C=Cc1sc2ccc(Cl)c3c2c1CN(C)CC3 [SKF-104856, 7-Chloro-2-ethenyl-3,4,5,6-tetrahydro-4-methylthieno[4,3,2-ef][3]benzazepine, reference compound] | 7.66 | – | – | – | – | – | – | < 7.00 | 1450 nM | 3.24 nM | 25.1 nM | pKi [4]: 7.30; pKi (human 5HT1E receptor; [5]): < 6.00
